Results published in patent US20190119282A1, “IMIDAZOPYRIDAZINES USEFUL AS INHIBITORS OF THE PAR-2 SIGNALING PATHWAY” (Vertex Pharmaceuticals Incorporated, priority 2013, published 2019).

How the values were obtained:
[1] = tested on: Thrombin-stimulated Ca2+ response in HT-29 cells; assay: Ca FLIPR TETRA assay, ANTAGONIST mode, stimulation with 1 U/mL Thrombin; assay type: cell-based, human; conditions: Homo sapiens, HT-29 cells, stimulation with 1 U/mL Thrombin
In short: (§1)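 Inhibition of activator-evoked Ca2+ flux was recorded on FLIPR Tetra in HT-29 cells after 30 min compound exposure at r.t. A prior read checked whether compounds alone triggered Ca2+ release.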

[2] = target: T1, PAR2 (HT-29 cells, trypsin activation) (Homo sapiens, UniProt P55085); assay: Ca FLIPR TETRA assay, ANTAGONIST mode, stimulation with 3.1 U/mL trypsin; assay type: cell-based; conditions: HT-29 cells, stimulation with 3.1 U/mL trypsin
T1 construct: host or cells: HT-29 cells
T1 sequence (P55085 26-397): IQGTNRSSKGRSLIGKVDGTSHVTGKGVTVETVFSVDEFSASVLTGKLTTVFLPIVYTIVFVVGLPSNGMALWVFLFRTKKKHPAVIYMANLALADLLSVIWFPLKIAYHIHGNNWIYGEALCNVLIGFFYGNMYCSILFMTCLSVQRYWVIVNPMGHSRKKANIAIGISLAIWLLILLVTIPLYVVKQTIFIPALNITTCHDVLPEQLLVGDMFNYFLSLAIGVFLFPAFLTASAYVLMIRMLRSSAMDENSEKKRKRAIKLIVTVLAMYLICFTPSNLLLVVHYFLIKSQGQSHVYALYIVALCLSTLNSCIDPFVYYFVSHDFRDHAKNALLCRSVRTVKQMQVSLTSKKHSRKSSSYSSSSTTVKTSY
In short: as §1

[3] = target: T2, PAR2 (HT-29 cells, SLIGKV activation) (Homo sapiens, UniProt P55085); assay: Ca FLIPR TETRA assay, ANTAGONIST mode, stimulation with 8 μM SLIGKV; assay type: cell-based; conditions: HT-29 cells, stimulation with 8 μM SLIGKV
T2 construct: host or cells: HT-29 cells
T2 sequence (P55085 26-397): T1 sequence (P55085 26-397)
In short: as §1

[4] = tested on: UTP-stimulated Ca2+ response in HT-29 cells; assay: Ca FLIPR TETRA assay, ANTAGONIST mode, stimulation with 0.6 μM UTP; assay type: cell-based, human; conditions: Homo sapiens, HT-29 cells, stimulation with 0.6 μM UTP
In short: as §1

Row | SMILES | IC50 ([1]; antagonist mode) [nM] | IC50 ([2]; antagonist mode) [nM] | IC50 ([3]; antagonist mode) [nM] | IC50 ([4]; antagonist mode) [µM] | IC50 [1] [nM] | IC50 [2] [nM] | IC50 [3] [nM] | IC50 [4] [µM]
1 | CC(C)c1cc(-c2ccc(Cl)cc2)nn2cc(C(=O)N3CCNCC3(C)C)nc12 [Compound I-521] | > 1000 | 480 | 625 | > 1 |  |  |  | 
2 | CC1(C)C(=O)NCCN1C(=O)c1cn2nc(-c3ccc(F)cc3)cc(-c3ccc(F)cc3)c2n1 [Compound I-523] | > 1000 | 9.6 | 12 | > 1 |  |  |  | 
3 | CC(C)(CO)c1cc(-c2ccc(F)cc2)nn2cc(C(=O)N3CCNC(=O)C3(C)C)nc12 [Compound I-189] | > 1000 | 417 | 400 | > 50 |  |  |  | 
4 | Cc1nnc(C(=O)N2CCN(C(=O)c3cn4nc(-c5ccc(C(F)(F)F)cc5)cc(C(C)(C)C)c4n3)C(C)(C)C2)o1 [Compound I-400] | > 1000 | 2.8 | 3.6 | > 1 |  |  |  | 
5 | Cc1nc(C(=O)N2CCN(C(=O)c3cn4nc(-c5ccc(F)c(C)c5)cc(C(C)(C)C)c4n3)C(C)(C)C2)c[nH]1 [Compound I-383] | > 1000 | 2.9 | 1.9 | > 1 |  |  |  | 
6 | CC(C)c1cc(-c2ccc(F)cc2)nn2cc(C(=O)N3CCN(C(=O)C4(O)CC4)[C@@H](C)C3)nc12 [Compound I-115] |  |  |  |  | > 50000 | 160 | 100 | > 50
7 | CCc1cc(-c2ccc(F)cc2)nn2cc(C(=O)N3CCN(C(=O)[C@H](O)CC(C)(C)C)CC3(C)C)nc12 [Compound I-165] |  |  |  |  | 7400 | 2 | 1 | 8
8 | CC(C)c1cc(-c2ccc(F)cc2)nn2cc(C(=O)N3CCN(C(=O)C(O)C(C)C)CC3(C)C)nc12 (stereo not drawn) [Compound I-176] |  |  |  |  | 14000 | 11 | 6 | 17
9 | CN(C)C(=O)CN1CCN(C(=O)c2cn3nc(-c4ccc(F)cc4)cc(C(C)(C)C)c3n2)C(C)(C)C1=O [Compound I-194] | > 1000 | 40.3 | 41.3 | > 1 |  |  |  | 
10 | CC(C)c1cc(-c2ccc(F)cc2)nn2cc(C(=O)N3CCN(C(=O)c4cncnc4)CC3(C)C)nc12 [Compound I-322] | > 1000 | 69 | 41.5 | > 1 |  |  |  | 
11 | Cc1nnc(C(=O)N2CCN(C(=O)c3cn4nc(-c5ccc(C(F)F)cc5)cc(C(C)C)c4n3)C(C)(C)C2)o1 [Compound I-299] | > 1000 | 53 | 37.3 | > 1 |  |  |  | 
12 | Cc1cc(C(=O)N2CCN(C(=O)c3cn4nc(-c5ccc(F)cc5)cc(C(C)(F)F)c4n3)C(C)(C)C2)[nH]n1 [Compound I-355] | > 1000 | 7 | 9.6 | > 1 |  |  |  | 
13 | Cc1cc(-c2cc(C(C)(C)C)c3nc(C(=O)N4CCN(C(=O)c5ncccn5)CC4(C)C)cn3n2)ccc1F [Compound I-387] | > 1000 | 3.1 | 1.4 | > 1 |  |  |  | 
14 | CCc1cc(-c2ccc(F)cc2)nn2cc(C(=O)N3CCN(C(=O)[C@H](O)CC(C)C)CC3(C)C)nc12 [Compound I-167] |  |  |  |  | 8500 | 2 | 2 | 9.6
15 | CC1(C)CN(C(=O)c2nc[nH]n2)CCN1C(=O)c1cn2nc(-c3ccc(F)cc3)cc(C(F)(F)F)c2n1 [Compound I-269] | > 1000 | 120 | 90.5 | > 1 |  |  |  | 
16 | O=C1CCN(C(=O)c2cn3nc(-c4ccc(F)cc4)cc(C(F)(F)F)c3n2)CC1 [Compound I-66] |  |  |  |  | 48000 | 12000 | 5000 | > 50
17 | O=C(c1cn2nc(-c3ccc(F)cc3)cc(C(F)(F)F)c2n1)N1CCCCC1c1ccncc1 (stereo not drawn) [Compound I-67] |  |  |  |  | 6700 | 3600 | 3100 | 8.1
18 | Cc1ccc(-c2cc(C(C)(C)C)c3nc(C(=O)N4CCN(C(=O)c5cc(C)n[nH]5)CC4(C)C)cn3n2)cc1 [Compound I-395] | > 1000 | 0.5 | 0.6 | > 1 |  |  |  | 
